{"source": "patent US6767569B1", "about": "“Surface decontamination of cooked sausage and processed meat and poultry products” (priority 1999, dated 2004)", "key": {"Salmonella spp.": {"tested_on": "Salmonella spp.", "format": "cell-based", "details": "pork skin; 5 seconds spray; 2% lactic acid, 2% acetic acid, 0.1% peracetic acid; after 48 hours", "method": "(§1) Samples of pork skin were inoculated separately with either 5 strains of E. coli or 5 strains of Salmonella spp. (mixtures X and Y, see Example 4). Five different treatments were evaluated for effectiveness in reducing bacteria on pork skin. […] EMB agar was used for E. coli and XLD for Salmonella, and a nutrient agar was also used for E. coli and Salmonella for total count.\n(§2) The five strains of generic E. coli and five strains of Salmonella spp. were cultured and transferred individually into 100 mL of tryptic soy broth (TSB, DIFCO, Detroit, Mich.) with 1% dextrose (Sigma, St. Louis, Mo.) in duplicate. Dextrose was added to induce acid tolerance in the microbial cell. The cultures were incubated at 35° C. for 24 hrs. to obtain ca. 10^9 colony forming units (CFU)/mL. The cells were harvested by the centrifuging each culture at 10,000 Xg force for 10 min. at 4° C., (Beckman J2-HS centrifuge, Beckman Instruments, Inc., Palo Alto, Calif.). After centrifugation, the supernatant was poured off, and cells remained in pellet form. Each pellet was individually re-suspended with 50 mL of 0.1% peptonewater (DIFCO, Detroit, Mich.). All five strains of E. coli or Salmonella spp. inoculum were transferred to separate HDPE plastic spray bottles (Sprayco™, Detroit, Mich.) to be used in the mist inoculation of pork skin samples.\n(§3) For E. coli, PCA and EMB media were used, and for Salmonella, PCA and XLD media were used. Bacto Plate Count Agar (PCA) was used in this study as a standard methods medium for the enumeration of bacteria before and after treatments. Spiral (sl), or spread (sd) plate technique were used for viable cell counts. Duplicate plates were performed for each treatment.\n(§4) Fresh pork skins taken from the loin region were cut to rectangles of 19.35 cm^2. A hole was bored into the top of each sample so that each sample could be suspended from an individual hook in the spray cabinet. Samples were laid out onto trays wrapped in butcher paper. Each tray was individually spray inoculated with E. coli or Salmonella spp. in a Plexiglas spray chamber to ca. 8.4 mL of inoculum. After the inoculation, each tray was placed under a laminar flow hood for 1 hr. to allow the surface to dry and for the attachment of the bacteria to the pork skin.\n(§5) The peracetic acid (PAA) used in this study was a 35.0% PAA buffered, liquid solution prepared from a STERIS 20™ two compartment cup (a dry powder containing anticorrosive additives, buffers, sequestrants, and surfactants). The peracetic acid determined before each use of the treatment using a calibration curve.\n(§6) Five inoculated samples were individually placed on stainless steel hooks in. a spray cabinet at ambient temperature.\n(§7) The samples were exposed to a continuous spray of the selected treatment for 5 seconds at a spray pressure of 16-18 psi.\n(§8) The treated samples were placed into individual stomacher bags containing 30 mL of 0.1% peptone water (DIFCO, Detroit, Mich.) and stomached for 2 min. Serial dilutions of 0, 10^−2, and 10^−4 were spiral plated (WASP spiral plater, Bioscience International, Rockville, Md.) on PCA (DIFCO, Detroit, Mich.) and EMB (DIFCO, Detroit, Mich.) for E. coli and on plate count agar (PCA, DIFCO, Detroit, Mich.) and xylose lysine decarboxylase agar (XLD, DIFCO, Detroit, Mich.) for Salmonella spp. Samples were also spread plated on PCA and EMB agar for E. coli or PCA and XLD agar for Salmonella spp, using […] for a total of 1 mL on 4 plates. This was to ensure a countable plate. Plates were inverted and incubated at 35° C. for 24 hrs. (48 hrs. for Salmonella spp.)."}, "E. coli": {"tested_on": "E. coli", "format": "cell-based", "details": "5 seconds spray", "method": "as §1, §2, §3, §4, §5, §6, §7, §8"}, "[1]": {"details": "pork skin, 2% lactic acid, 2% acetic acid, 0.1% peracetic acid, after 24 hours"}}}
{"compound": "CC(=O)OO", "note": "[peracetic acid]", "values": [{"measurement": "Total Count (Salmonella) on PCA", "setting": "Salmonella spp.", "result": 5.34, "unit": "Log CFU/cm^2"}, {"measurement": "Total Count (Salmonella) on XLD", "setting": "Salmonella spp.", "result": 3.83, "unit": "Log CFU/cm^2"}, {"measurement": "reduction of E. coli on pork skin", "setting": "E. coli; peracetic acid 0.1%", "result": 3, "unit": "log/cm^2"}, {"measurement": "Total Count (E. coli) on EMB", "setting": "E. coli; [1]", "result": 3.04, "unit": "Log CFU/cm^2"}, {"measurement": "Total Count (E. coli) on PCA", "setting": "E. coli; [1]", "result": 3.28, "unit": "Log CFU/cm^2"}]}
